In US11396531B2, “Antimicrobial peptides comprising epsilon lysine residues” (priority 2016, dated 2022):
Converted amounts (≈) assume the structure as drawn. Read-outs that look alike come from different tables or passages of the source.

Columns and labels:
[1] = test system: a number of micro-organisms; details: cited from earlier work
[2] = Calcein dye leakage from mammalian model LUVs; details: peptide:lipid ratio 0.0625
Experimental: To obtain an insight into the mechanism of membrane discrimination, large unilamellar vesicles (LUVs) which mimic the cytoplasmic membrane of mammalian (PC/Cholesterol) and microbial (PE:PG) cells were used. […] More dramatic results were observed when the experiments were carried out on PC/Cholesterol LUVs.

[3] = test system: C. albicans
Experimental: (§1) MIC of cationic polymers and polypeptide were tested in accordance with the Clinical and Laboratory Standards Institute (CLSI) guidelines against a panel of antibiotic-susceptible/-resistant bacteria, yeasts and fungal strains. Bacterial and yeast strains were cultured on tryptic soy agar (TSA) and Sabaroud dextrose agar (SDA) plates (Neogen Corporation, MI, USA) overnight respectively. Inocula in Mueller-Hinton broth (MHB) for bacteria and SD broth for C. albicans (Beckton Dickinson, MD, USA) were prepared at 0.5 McFarland. The suspensions were then diluted to a final concentration of 10^5 CFU/ml in a 96-well microtitre plate (SPL Life Sciences Co., Ltd, Korea). […] The antimicrobial activities were compared with topical antiseptic agents, BAK and CHX. A similar protocol was used to determine the MIC of εPL against antibiotic-resistant pathogens. MIC of the polymers and polypeptides against Fusarium strains was determined in full strength RPMI-1640 buffer. Fungal spores were recovered from a 5-day old culture on a potato dextrose agar and diluted to a concentration of 10^5 spores/ml in 0.9% saline solution. A further 50-fold dilution was done in RPMI-1640 buffer and 100 μl of the inoculum was added to 96 well plates containing an equal volume of test peptides at 2-fold serial dilutions. 200 μl of inoculum without any additives and buffer alone served as positive and negative controls, respectively. The plate was then incubated at 30° C. for 48 h. The absorbance value was measured at 600 nm as before and the lowest concentration of the peptide which inhibited 90% growth was reported. All MIC determinations were performed in duplicates.
(§2) MICs of polymers/antibiotics were determined using the microdilution method in 96 well microtitre plates (SPL Life Sciences Co., Ltd, Korea), following the guidelines of Clinical and Laboratory Standards Institute (CLSI) document M100-S18. Briefly, polymers (1-512 μg/ml) or antibiotics were dissolved in appropriate media (Mueller Hinton broth, MHB for bacteria; Sabaroud's Dextrose (SD) broth for yeasts and RPMI buffer for Fusarium strains) and 100 μl of this was then mixed with an equal volume of microbial inoculum (OD600=˜0.08) in the same media and shaken in a closed incubator.

[4] = test system: C. tropicalis; details: C. tropicalis (n = 9), Table 5
Experimental: as §1, §2

[5] = test system: Vancomycin-resistant Enterococcus (VRE); details: VRE (n = 21 strains), Table 5
Experimental: as §1, §2

[6] = test system: C. parapsilosis; details: C. parpsilosis (n = 9), Table 5
Experimental: as §1, §2

[7] = test system: B. cereus ATCC 11778; details: B. cereus ATCC 11778, Table 5
Experimental: as §1, §2

[8] = test system: Carbapenam-resistant Enterobacter strains (CRE); assay: microbe, parasite or virus in culture; details: CRE (n = 19 strains), Table 5
Experimental: as §1, §2

[9] = test system: A. baumannii; assay: microbe, parasite or virus in culture; details: A. baumannii (n = 10), Table 5
Experimental: as §1, §2

[10] = test system: E. cloacae complex; assay: microbe, parasite or virus in culture
Experimental: as §1, §2

CC[C@H](C)[C@H](NC(=O)CN)C(=O)NCC(=O)N[C@@H](C)C(=O)N[C@H](C(=O)N[C@@H](CC(C)C)C(=O)N[C@@H](CCCCN)C(=O)N[C@H](C(=O)N[C@@H](CC(C)C)C(=O)N[C@H](C(=O)N[C@H](C(=O)NCC(=O)N[C@@H](CC(C)C)C(=O)N1CCC[C@H]1C(=O)N[C@@H](C)C(=O)N[C@@H](CC(C)C)C(=O)N[C@H](C(=O)N[C@@H](CO)C(=O)N[C@@H](Cc1c[nH]c2ccccc12)C(=O)N[C@H](C(=O)N[C@@H](CCCCN)C(=O)N[C@@H](CCCNC(=N)N)C(=O)N[C@@H](CCCCN)C(=O)N[C@@H](CCCNC(=N)N)C(=O)N[C@@H](CCC(N)=O)C(=O)N[C@@H](CCC(N)=O)C(N)=O)[C@@H](C)CC)[C@@H](C)CC)[C@@H](C)O)[C@@H](C)O)C(C)C)C(C)C [Melittin]
MIC (range against a number of micro-organisms) ([1]; at 1 - 4 × 10^5 CFU/mL, reference 4): 0.2 - 3 μM at 1 -
MIC (range against a number of micro-organisms) ([1]; at 1 × 10^6 CFU/mL, reference 6): 0.5 - 8 μM at
MIC (range against a number of micro-organisms) ([1]; at 7.5 × 10^5 CFU/mL, reference 8): 3.9 - 31.3 μM at
dye leakage from PC/Cholesterol LUVs [2]: ~70%
MIC ([3]; C. albicans (n = 5), Table 5): 2 to 4 µg/mL
MIC against C. albicans (n = 5) ([3]; Table 4, range over 5 strains): 2 to 4 µg/mL
MIC [4]: 8 to 64 µg/mL
MIC90 ([5]; 90% of strains susceptible): (MIC90 = 8)^2 μg/ml
MIC ([5]; range): 0.5 to 8 µg/mL
MIC [6]: 16 to 64 µg/mL
MIC [7]: 8 µg/mL (≈ 2.81 µM)
MIC50 ([8]; 50% of strains susceptible): (MIC50 = 8)^2 μg/ml
MIC ([8]; range): 8 to 32 µg/mL
MIC90 ([9]; 90% of strains susceptible): (MIC90 = 4)^2 μg/ml
MIC ([9]; range): 2 to 4 µg/mL
MIC ([10]; E. cloacae complex 6780, Table 5): 8 µg/mL (≈ 2.81 µM)
MIC ([10]; E. cloacae complex 44095, Table 5): 8 µg/mL (≈ 2.81 µM)
